Reference: ChEMBL document CHEMBL3045535, “Evaluation of lufenuron as a chemosterilant against fruit flies of the genus Anastrepha (Diptera: Tephritidae)” (2010)
The source made the active and inactive calls. The calls are words filed in the database; no cut-off is given here.

How the values were obtained:
[1] = system: Anastrepha ludens; assay: Reduction of fertility in 7 days old adult of Anastrepha ludens assessed as reduction of egg hatching at 5 mg/g treated with diet measured after 11 days oviposition; assay type: functional; set-up: scale not given: the % may be the effect or the level left
[2] = system: Anastrepha ludens; assay: Reduction of fertility in 7 days old adult of Anastrepha ludens assessed as reduction of egg hatching at 1 mg/g treated with diet measured after 5 days oviposition; assay type: functional; set-up: scale not given: the % may be the effect or the level left
[3] = system: Anastrepha ludens; assay: Reduction of fertility in 7 days old adult of Anastrepha ludens assessed as reduction of egg hatching at 10 mg/g treated with diet measured after 9 days oviposition; assay type: functional; set-up: scale not given: the % may be the effect or the level left
[4] = system: Anastrepha serpentina; assay: Reduction of fertility in 7 days old adult of Anastrepha serpentina assessed as reduction of egg hatching at 1 mg/g treated with diet measured after 9 days oviposition; assay type: functional; set-up: scale not given: the % may be the effect or the level left
[5] = system: Anastrepha ludens; assay: Reduction of fertility in 7 days old adult of Anastrepha ludens assessed as reduction of egg hatching at 10 mg/g treated with diet measured after 5 days oviposition; assay type: functional; set-up: scale not given: the % may be the effect or the level left
[6] = system: Anastrepha striata; assay: Reduction of fertility in 7 days old adult of Anastrepha striata assessed as reduction of egg hatching at 0.5 mg/g treated with diet measured after 3 days oviposition; assay type: functional; set-up: scale not given: the % may be the effect or the level left
[7] = system: Anastrepha ludens; assay: Reduction of fertility in 7 days old adult of Anastrepha ludens assessed as reduction of egg hatching at 1 mg/g treated with diet measured after 7 days oviposition; assay type: functional; set-up: scale not given: the % may be the effect or the level left
[8] = system: Anastrepha obliqua; assay: Reduction of fertility in 7 days old adult of Anastrepha obliqua assessed as reduction of egg hatching at 30 mg/g treated with diet measured after 3 days oviposition; assay type: functional; set-up: scale not given: the % may be the effect or the level left
[9] = system: Anastrepha striata; assay: Reduction of fertility in 7 days old adult of Anastrepha striata assessed as reduction of egg hatching at 1 mg/g treated with diet measured after 3 days oviposition; assay type: functional; set-up: scale not given: the % may be the effect or the level left
[10] = system: Anastrepha obliqua; assay: Reduction of fertility in 7 days old adult of Anastrepha obliqua assessed as reduction of egg hatching at 30 mg/g treated with diet measured after 5 days oviposition; assay type: functional; set-up: scale not given: the % may be the effect or the level left
[11] = system: Anastrepha obliqua; assay: Reduction of fertility in 7 days old adult of Anastrepha obliqua assessed as reduction of egg hatching at 5 mg/g treated with diet measured after 5 days oviposition; assay type: functional; set-up: scale not given: the % may be the effect or the level left
[12] = system: Anastrepha striata; assay: Reduction of fertility in 7 days old adult of Anastrepha striata assessed as reduction of egg hatching at 30 mg/g treated with diet measured after 1 day oviposition; assay type: functional; set-up: scale not given: the % may be the effect or the level left
[13] = system: Anastrepha striata; assay: Reduction of fertility in 7 days old adult of Anastrepha striata assessed as reduction of egg hatching at 30 mg/g treated with diet measured after 9 days oviposition; assay type: functional; set-up: scale not given: the % may be the effect or the level left
[14] = system: Anastrepha striata; assay: Reduction of fertility in 7 days old adult of Anastrepha striata assessed as reduction of egg hatching at 5 mg/g treated with diet measured after 5 days oviposition; assay type: functional; set-up: scale not given: the % may be the effect or the level left
[15] = system: Anastrepha ludens; assay: Reduction of fertility in 7 days old adult of Anastrepha ludens assessed as reduction of egg hatching at 0.1 mg/g treated with diet measured after 11 days oviposition; assay type: functional; set-up: scale not given: the % may be the effect or the level left
[16] = system: Anastrepha obliqua; assay: Reduction of fertility in 7 days old adult of Anastrepha obliqua assessed as reduction of egg hatching at 1 mg/g treated with diet measured after 1 day oviposition; assay type: functional; set-up: scale not given: the % may be the effect or the level left
[17] = system: Anastrepha ludens; assay: Reduction of fertility in 7 days old adult of Anastrepha ludens assessed as reduction of egg hatching at 5 mg/g treated with diet measured after 9 days oviposition; assay type: functional; set-up: scale not given: the % may be the effect or the level left
[18] = system: Anastrepha striata; assay: Reduction of fertility in 7 days old adult of Anastrepha striata assessed as reduction of egg hatching at 0.5 mg/g treated with diet measured after 11 days oviposition; assay type: functional; set-up: scale not given: the % may be the effect or the level left
[19] = system: Anastrepha ludens; assay: Reduction of fertility in 7 days old adult of Anastrepha ludens assessed as reduction of egg hatching at 5 mg/g treated with diet measured after 5 days oviposition; assay type: functional; set-up: scale not given: the % may be the effect or the level left
[20] = system: Anastrepha ludens; assay: Effect on fecundity in 7 days old adult of Anastrepha ludens at 0.1 to 30 mg/g treated with diet after 24 hr; assay type: functional, organism-based
[21] = system: Anastrepha striata; assay: Reduction of fertility in 7 days old adult of Anastrepha striata assessed as reduction of egg hatching at 0.1 mg/g treated with diet measured after 11 days oviposition; assay type: functional; set-up: scale not given: the % may be the effect or the level left
[22] = system: Anastrepha serpentina; assay: Effect on fertility in 7 days old adult female of Anastrepha serpentina at 30 mg/g treated with diet after 24 hr in presence of untreated adult male of Anastrepha serpentina; assay type: functional, organism-based
[23] = system: Anastrepha serpentina; assay: Reduction of fertility in 7 days old adult of Anastrepha serpentina assessed as reduction of egg hatching at 10 mg/g treated with diet measured after 5 days oviposition; assay type: functional; set-up: scale not given: the % may be the effect or the level left
[24] = system: Anastrepha ludens; assay: Reduction of fertility in 7 days old adult of Anastrepha ludens assessed as reduction of egg hatching at 0.1 mg/g treated with diet measured after 1 day oviposition; assay type: functional; set-up: scale not given: the % may be the effect or the level left
[25] = system: Anastrepha obliqua; assay: Reduction of fertility in 7 days old adult of Anastrepha obliqua assessed as reduction of egg hatching at 5 mg/g treated with diet measured after 7 days oviposition; assay type: functional; set-up: scale not given: the % may be the effect or the level left
[26] = system: Anastrepha ludens; assay: Reduction of fertility in 7 days old adult of Anastrepha ludens assessed as reduction of egg hatching at 5 mg/g treated with diet measured after 7 days oviposition; assay type: functional; set-up: scale not given: the % may be the effect or the level left
[27] = system: Anastrepha serpentina; assay: Reduction of fertility in 7 days old adult of Anastrepha serpentina assessed as reduction of egg hatching at 30 mg/g treated with diet measured after 7 days oviposition; assay type: functional; set-up: scale not given: the % may be the effect or the level left
[28] = system: Anastrepha serpentina; assay: Reduction of fertility in 7 days old adult of Anastrepha serpentina assessed as reduction of egg hatching at 1 mg/g treated with diet measured after 3 days oviposition; assay type: functional; set-up: scale not given: the % may be the effect or the level left
[29] = system: Anastrepha serpentina; assay: Reduction of fertility in 7 days old adult of Anastrepha serpentina assessed as reduction of egg hatching at 5 mg/g treated with diet measured after 7 days oviposition; assay type: functional; set-up: scale not given: the % may be the effect or the level left
[30] = system: Anastrepha obliqua; assay: Reduction of fertility in 7 days old adult of Anastrepha obliqua assessed as reduction of egg hatching at 1 mg/g treated with diet measured after 11 days oviposition; assay type: functional; set-up: scale not given: the % may be the effect or the level left
[31] = system: Anastrepha obliqua; assay: Reduction of fertility in 7 days old adult of Anastrepha obliqua assessed as reduction of egg hatching at 0.5 mg/g treated with diet measured after 11 days oviposition; assay type: functional; set-up: scale not given: the % may be the effect or the level left
[32] = system: Anastrepha obliqua; assay: Reduction of fertility in 7 days old adult of Anastrepha obliqua assessed as reduction of egg hatching at 30 mg/g treated with diet measured after 9 days oviposition; assay type: functional; set-up: scale not given: the % may be the effect or the level left
[33] = system: Anastrepha ludens; assay: Reduction of fertility in 7 days old adult of Anastrepha ludens assessed as reduction of egg hatching at 0.5 mg/g treated with diet measured after 5 days oviposition; assay type: functional; set-up: scale not given: the % may be the effect or the level left
[34] = system: Anastrepha obliqua; assay: Reduction of fertility in 7 days old adult of Anastrepha obliqua assessed as reduction of egg hatching at 10 mg/g treated with diet measured after 7 days oviposition; assay type: functional; set-up: scale not given: the % may be the effect or the level left
[35] = system: Anastrepha serpentina; assay: Reduction of fertility in 7 days old adult of Anastrepha serpentina assessed as reduction of egg hatching at 0.1 mg/g treated with diet measured after 11 days oviposition; assay type: functional; set-up: scale not given: the % may be the effect or the level left
[36] = system: Anastrepha obliqua; assay: Reduction of fertility in 7 days old adult of Anastrepha obliqua assessed as reduction of egg hatching at 1 mg/g treated with diet measured after 9 days oviposition; assay type: functional; set-up: scale not given: the % may be the effect or the level left
[37] = system: Anastrepha obliqua; assay: Reduction of fertility in 7 days old adult of Anastrepha obliqua assessed as reduction of egg hatching at 30 mg/g treated with diet measured after 1 day oviposition; assay type: functional; set-up: scale not given: the % may be the effect or the level left
[38] = system: Anastrepha obliqua; assay: Reduction of fertility in 7 days old adult of Anastrepha obliqua assessed as reduction of egg hatching at 5 mg/g treated with diet measured after 3 days oviposition; assay type: functional; set-up: scale not given: the % may be the effect or the level left
[39] = system: Anastrepha ludens; assay: Reduction of fertility in 7 days old adult of Anastrepha ludens assessed as reduction of egg hatching at 30 mg/g treated with diet measured after 5 days oviposition; assay type: functional; set-up: scale not given: the % may be the effect or the level left
[40] = system: Anastrepha ludens; assay: Reduction of fertility in 7 days old adult of Anastrepha ludens assessed as reduction of egg hatching at 10 mg/g treated with diet measured after 1 day oviposition; assay type: functional; set-up: scale not given: the % may be the effect or the level left
[41] = system: Anastrepha obliqua; assay: Reduction of fertility in 7 days old adult of Anastrepha obliqua assessed as reduction of egg hatching at 0.5 mg/g treated with diet measured after 3 days oviposition; assay type: functional; set-up: scale not given: the % may be the effect or the level left

Compound: O=C(NC(=O)c1c(F)cccc1F)Nc1cc(Cl)c(OC(F)(F)C(F)C(F)(F)F)cc1Cl (racemic) [LUFENURON]
- Activity [1]: 32.7%
- Activity [2]: 8%
- Activity [3]: 14.7%
- Activity [4]: 95.6%
- Activity [5]: 2.7%
- Activity [6]: 22.7%
- Activity [7]: 20%
- Activity [8]: 0%
- Activity [9]: 8%
- Activity [10]: 0%
- Activity [11]: 0%
- Activity [12]: 8.7%
- Activity [13]: 7.3%
- Activity [14]: 2.7%
- Activity [15]: 66.7%
- Activity [16]: 0%
- Activity [17]: 30.7%
- Activity [18]: 28.7%
- Activity [19]: 20%
- Activity [20]: inactive
- Activity [21]: 72.7%
- Activity [22]: inactive
- Activity [23]: 54.7%
- Activity [24]: 26.7%
- Activity [25]: 0%
- Activity [26]: 28%
- Activity [27]: 54.2%
- Activity [28]: 71.1%
- Activity [29]: 96.7%
- Activity [30]: 0.7%
- Activity [31]: 4%
- Activity [32]: 1.3%
- Activity [33]: 10.7%
- Activity [34]: 1.3%
- Activity [35]: 80.3%
- Activity [36]: 0%
- Activity [37]: 0%
- Activity [38]: 2.7%
- Activity [39]: 4%
- Activity [40]: 6%
- Activity [41]: 2.7%
